According to ChEMBL document CHEMBL1125697, “Synthesis and pharmacological examination of 1-(3-methoxy-4-methylphenyl)-2-aminopropane and 5-methoxy-6-methyl-2-aminoindan: similarities to 3,4-(methylenedioxy)methamphetamine (MDMA)” (J Med Chem, 1991):

Legend:
[1] = test system: Rattus norvegicus; experiment: Momoamine and metabolic levels observed 1 week following acute dosing against at a dose of 20 mg/kg Frontal cortex DOPAC; assay type: ADME, organism-based; parameters: dose 20 mg/kg; conditions: in vivo, 168 h
[2] = test system: Rattus norvegicus; experiment: Momoamine and metabolic levels observed 1 week following acute dosing against at a dose of 20 mg/kg Frontal cortex HVA; assay type: ADME, organism-based; parameters: dose 20 mg/kg; conditions: in vivo, 168 h
[3] = test system: Rattus norvegicus; experiment: Momoamine and metabolic levels observed 1 week following acute dosing against at a dose of 20 mg/kg Frontal cortex NE; assay type: ADME, organism-based; parameters: dose 20 mg/kg; conditions: in vivo, 168 h
[4] = test system: Rattus norvegicus; experiment: Momoamine and metabolic levels observed 1 week following acute dosing against at a dose of 20 mg/kg Frontal cortex DA; assay type: ADME, organism-based; parameters: dose 20 mg/kg; conditions: in vivo, 168 h
[5] = test system: Rattus norvegicus; experiment: Momoamine and metabolic levels observed 1 week following acute dosing against at a dose of 10 mg/kg Hippocampus 5-HT; assay type: ADME, organism-based; parameters: dose 10 mg/kg; conditions: in vivo, 168 h
[6] = test system: Rattus norvegicus; experiment: Momoamine and metabolic levels observed 1 week following acute dosing against at a dose of 10 mg/kg Hippocampus NE; assay type: ADME, organism-based; parameters: dose 10 mg/kg; conditions: in vivo, 168 h
[7] = test system: Rattus norvegicus; experiment: Momoamine and metabolic levels observed 1 week following acute dosing at a dose of 10 mg/kg Frontal cortex 5-HIAA; assay type: ADME, organism-based; parameters: dose 10 mg/kg; conditions: in vivo, 168 h
[8] = test system: Rattus norvegicus; experiment: Momoamine and metabolic levels observed 1 week following acute dosing at a dose of 10 mg/kg Frontal cortex 5-HT; assay type: ADME, organism-based; parameters: dose 10 mg/kg; conditions: in vivo, 168 h
[9] = test system: Rattus norvegicus; experiment: Momoamine and metabolic levels observed 1 week following acute dosing at a dose of 10 mg/kg Frontal cortex DA; assay type: ADME, organism-based; parameters: dose 10 mg/kg; conditions: in vivo, 168 h
[10] = test system: Rattus norvegicus; experiment: Momoamine and metabolic levels observed 1 week following acute dosing at a dose of 10 mg/kg Frontal cortex DOPAC; assay type: ADME, organism-based; parameters: dose 10 mg/kg; conditions: in vivo, 168 h
[11] = test system: Rattus norvegicus; experiment: Momoamine and metabolic levels observed 1 week following acute dosing against at a dose of 20 mg/kg Hippocampus NE; assay type: ADME, organism-based; parameters: dose 20 mg/kg; conditions: in vivo, 168 h
[12] = test system: Rattus norvegicus; experiment: Momoamine and metabolic levels observed 2 weeks following sub-acute dosing against Frontal cortex 5-HIAA; assay type: ADME, organism-based; conditions: in vivo, 336 h
[13] = test system: Rattus norvegicus; experiment: Momoamine and metabolic levels observed 2 weeks following sub-acute dosing against Frontal cortex 5-HT; assay type: ADME, organism-based; conditions: in vivo, 336 h
[14] = test system: Rattus norvegicus; experiment: Momoamine and metabolic levels observed 2 weeks following sub-acute dosing against Frontal cortex DA; assay type: ADME, organism-based; conditions: in vivo, 336 h
[15] = test system: Rattus norvegicus; experiment: Momoamine and metabolic levels observed 2 weeks following sub-acute dosing against Frontal cortex DOPAC; assay type: ADME, organism-based; conditions: in vivo, 336 h
[16] = test system: Rattus norvegicus; experiment: Momoamine and metabolic levels observed 2 weeks following sub-acute dosing against Frontal cortex NE; assay type: ADME, organism-based; conditions: in vivo, 336 h
[17] = test system: Rattus norvegicus; experiment: Momoamine and metabolic levels observed 2 weeks following sub-acute dosing against Hippocampus 5-HIAA; assay type: ADME, organism-based; conditions: in vivo, 336 h
[18] = test system: Rattus norvegicus; experiment: Momoamine and metabolic levels observed 2 weeks following sub-acute dosing against Hippocampus 5-HT; assay type: ADME, organism-based; conditions: in vivo, 336 h
[19] = test system: Rattus norvegicus; experiment: Momoamine and metabolic levels observed 1 week following acute dosing against at a dose of 20 mg/kg Frontal cortex 5-HIAA; assay type: ADME, organism-based; parameters: dose 20 mg/kg; conditions: in vivo, 168 h
[20] = test system: Rattus norvegicus; experiment: Momoamine and metabolic levels observed 1 week following acute dosing against at a dose of 20 mg/kg Frontal cortex 5-HT; assay type: ADME, organism-based; parameters: dose 20 mg/kg; conditions: in vivo, 168 h
[21] = test system: Rattus norvegicus; experiment: Momoamine and metabolic levels observed 1 week following acute dosing at a dose of 10 mg/kg Frontal cortex HVA; assay type: ADME, organism-based; parameters: dose 10 mg/kg; conditions: in vivo, 168 h
[22] = test system: Rattus norvegicus; experiment: Momoamine and metabolic levels observed 1 week following acute dosing at a dose of 10 mg/kg Frontal cortex NE; assay type: ADME, organism-based; parameters: dose 10 mg/kg; conditions: in vivo, 168 h
[23] = test system: Rattus norvegicus; experiment: Momoamine and metabolic levels observed 1 week following acute dosing at a dose of 10 mg/kg Hippocampus 5-HIAA; assay type: ADME, organism-based; parameters: dose 10 mg/kg; conditions: in vivo, 168 h
[24] = test system: Rattus norvegicus; experiment: Momoamine and metabolic levels observed at 3 hr postdrug against at a dose of 20 mg/kg Hippocampus NE; assay type: ADME, organism-based; parameters: dose 20 mg/kg; conditions: in vivo
[25] = test system: Rattus norvegicus; experiment: Momoamine and metabolic levels observed at 3 hr postdrug against at a dose of 20 mg/kg Frontal cortex 5-HT; assay type: ADME, organism-based; parameters: dose 20 mg/kg; conditions: in vivo
[26] = test system: Rattus norvegicus; experiment: Momoamine and metabolic levels observed at 3 hr postdrug against at a dose of 20 mg/kg Frontal cortex DA; assay type: ADME, organism-based; parameters: dose 20 mg/kg; conditions: in vivo
[27] = test system: Rattus norvegicus; experiment: Momoamine and metabolic levels observed at 3 h postdrug against at a dose of 20 mg/kg Frontal cortex DOPAC; assay type: ADME, organism-based; parameters: dose 20 mg/kg; conditions: in vivo
[28] = test system: Rattus norvegicus; experiment: Momoamine and metabolic levels observed at 3 hr postdrug against at a dose of 20 mg/kg Frontal cortex HVA; assay type: ADME, organism-based; parameters: dose 20 mg/kg; conditions: in vivo
[29] = test system: Rattus norvegicus; experiment: Momoamine and metabolic levels observed at 3 hr postdrug against at a dose of 20 mg/kg Frontal cortex NE; assay type: ADME, organism-based; parameters: dose 20 mg/kg; conditions: in vivo
[30] = test system: Rattus norvegicus; experiment: Momoamine and metabolic levels observed at 3 hr postdrug against at a dose of 20 mg/kg Hippocampus 5-HIAA; assay type: ADME, organism-based; parameters: dose 20 mg/kg; conditions: in vivo
[31] = test system: Rattus norvegicus; experiment: Momoamine and metabolic levels observed 2 weeks following sub-acute dosing against Hippocampus NE; assay type: ADME, organism-based; conditions: in vivo, 336 h
[32] = test system: Rattus norvegicus; experiment: Momoamine and metabolic levels observed 1 week following acute dosing against at a dose of 20 mg/kg Hippocampus 5-HIAA; assay type: ADME, organism-based; parameters: dose 20 mg/kg; conditions: in vivo, 168 h
[33] = test system: Rattus norvegicus; experiment: Momoamine and metabolic levels observed at 3 hr postdrug against at a dose of 20 mg/kg Frontal cortex 5-HIAA; assay type: ADME, organism-based; parameters: dose 20 mg/kg; conditions: in vivo
[34] = test system: Rattus norvegicus; experiment: Momoamine and metabolic levels observed 1 week following acute dosing against at a dose of 20 mg/kg Hippocampus 5-HT; assay type: ADME, organism-based; parameters: dose 20 mg/kg; conditions: in vivo, 168 h
[35] = test system: Rattus norvegicus; experiment: Effective dose was evaluated for drug discrimination in I-trained rats, when given at a dose of 0.25 mg/kg; assay type: functional; conditions: Rattus norvegicus; read-out: ED50
[36] = test system: Rattus norvegicus; experiment: Effective dose was evaluated for drug discrimination in I-trained rats, when given at a dose of 1.16 micro mol/kg; assay type: functional
[37] = test system: Rattus norvegicus; experiment: Effective dose was evaluated for drug discrimination in S-trained rats, when given at a dose of 0.25 umol/kg; assay type: functional
[38] = test system: Rattus norvegicus; experiment: Effective dose was evaluated for drug discrimination in S-trained rats, when given at a dose of 0.25 mg/kg; assay type: functional
[39] = species on record: Rattus norvegicus; experiment: Compound was evaluated for the uptake inhibition of [3H]-5-HT in rats; assay type: functional
[40] = test system: Rattus norvegicus; experiment: Percentage of non disrupted rats that selected the drug lever, when given at a dose of 0.25 mg/kg; assay type: functional
[41] = test system: Rattus norvegicus; experiment: Percentage of non disrupted rats that selected the drug lever, when given at a dose of 0.25 mg/kg in LSD-Trained rats; assay type: functional
[42] = test system: Rattus norvegicus; experiment: Percentage of non disrupted rats that selected the drug lever, when given at a dose of 0.25 mg/kg in S-Amphetamine-Trained rats; assay type: functional
[43] = test system: Rattus norvegicus; experiment: Percentage of non disrupted rats that selected the drug lever, when given at a dose of 0.50 mg/kg in LSD-Trained rats; assay type: functional; conditions: dose 0.5 mg/kg
[44] = test system: Rattus norvegicus; experiment: Percentage of non disrupted rats that selected the drug lever, when given at a dose of 0.5 mg/kg; assay type: functional
[45] = test system: Rattus norvegicus; experiment: Percentage of non disrupted rats that selected the drug lever, when given at a dose of 1.00 mg/kg in S-Amphetamine-Trained rats; assay type: functional
[46] = test system: Rattus norvegicus; experiment: Percentage of non disrupted rats that selected the drug lever, when given at a dose of 2.00 mg/kg; assay type: functional
[47] = test system: Rattus norvegicus; experiment: Percentage of non disrupted rats that selected the drug lever, when given at a dose of 2.00 mg/kg in LSD-Trained rats; assay type: functional
[48] = test system: Rattus norvegicus; experiment: Percentage of non disrupted rats that selected the drug lever, when given at a dose of 0.5 mg/kg in S-Amphetamine-Trained rats; assay type: functional
[49] = test system: Rattus norvegicus; experiment: Percentage of non disrupted rats that selected the drug lever, when given at a dose of 1.00 mg/kg; assay type: functional
[50] = target: Sodium-dependent serotonin transporter (Rattus norvegicus) (UniProt P31652); experiment: Number of uptake sites for [3H]paroxetine receptor binding after sub-acute dosing against Frontal cortex; assay type: tissue-based
[51] = target: Sodium-dependent serotonin transporter (Rattus norvegicus) (UniProt P31652); experiment: Number of uptake sites for [3H]paroxetine receptor binding after sub-acute dosing against Hippocampus
[52] = test system: Rattus norvegicus; experiment: Momoamine and metabolic levels observed 2 weeks following sub-acute dosing against Frontal cortex HVA; assay type: ADME, organism-based; conditions: in vivo, 336 h

Chain of Sodium-dependent serotonin transporter (Rattus norvegicus) (P31652 whole entry): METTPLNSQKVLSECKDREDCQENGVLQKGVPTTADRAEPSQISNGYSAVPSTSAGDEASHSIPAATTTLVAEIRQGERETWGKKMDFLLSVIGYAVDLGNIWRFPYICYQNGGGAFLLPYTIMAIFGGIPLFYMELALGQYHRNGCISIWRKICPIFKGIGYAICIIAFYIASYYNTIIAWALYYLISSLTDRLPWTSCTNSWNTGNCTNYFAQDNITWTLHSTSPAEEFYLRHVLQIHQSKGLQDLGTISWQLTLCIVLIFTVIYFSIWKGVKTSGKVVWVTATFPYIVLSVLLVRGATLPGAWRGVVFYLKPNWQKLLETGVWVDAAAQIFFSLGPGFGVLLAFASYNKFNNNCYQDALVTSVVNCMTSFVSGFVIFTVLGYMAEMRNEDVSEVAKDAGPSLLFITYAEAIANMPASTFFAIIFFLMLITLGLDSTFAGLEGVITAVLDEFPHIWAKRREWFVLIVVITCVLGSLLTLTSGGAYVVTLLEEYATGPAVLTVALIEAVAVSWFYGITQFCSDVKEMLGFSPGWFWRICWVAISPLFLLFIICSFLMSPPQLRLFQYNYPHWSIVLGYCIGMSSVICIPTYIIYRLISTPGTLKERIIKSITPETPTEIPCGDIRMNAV

Compound: COc1cc(CC(C)N)ccc1C (configuration not stated)
- Metabolite level [1]: 45
- Metabolite level [2]: 85
- Metabolite level [3]: 487
- Metabolite level [4]: 86
- Metabolite level [5]: 255
- Metabolite level [6]: 620
- Metabolite level [7]: 233
- Metabolite level [8]: 281
- Metabolite level [9]: 88
- Metabolite level [10]: 39
- Metabolite level [11]: 578
- Metabolite level [12]: 253
- Metabolite level [13]: 411
- Metabolite level [14]: 83
- Metabolite level [15]: 74
- Metabolite level [16]: 573
- Metabolite level [17]: 503
- Metabolite level [18]: 392
- Metabolite level [19]: 229
- Metabolite level [20]: 316
- Metabolite level [21]: 70
- Metabolite level [22]: 394
- Metabolite level [23]: 460
- Metabolite level [24]: 641
- Metabolite level [25]: 212
- Metabolite level [26]: 120
- Metabolite level [27]: 46
- Metabolite level [28]: 138
- Metabolite level [29]: 585
- Metabolite level [30]: 260
- Metabolite level [31]: 724
- Metabolite level [32]: 430
- Metabolite level [33]: 139
- Metabolite level [34]: 431
- ED50 [35]: 0.59 mg/kg
- ED50 [36]: 2.74 µmol/kg
- ED50 [37]: 2.16 µmol/kg
- ED50 [38]: 0.47 mg/kg
- IC50 [39]: 136 nM
- SDL [40]: 11%
- SDL [41]: 0%
- SDL [42]: 0%
- SDL [43]: 38%
- SDL [44]: 50%
- SDL [45]: 0%
- SDL [46]: 100%
- SDL [47]: 75%
- SDL [48]: 0%
- SDL [49]: 63%
- No. of uptake sites [50]: 12.3
- No. of uptake sites [51]: 14.9
- Metabolite level [52]: 62
